Results published in patent US12385042B2, “Cell-penetrating peptides” (VECTIOPEP OÜ, priority 2019, dated 2025).
“Also recorded” adds a separate entry of the source. Where a SMILES comes first, the peptide text is derived from it. Bridges are numbered along the chain shown (N, C = ends). Roman numbers before positions name the chains, in order. [ ]: non-standard residue; d: D form. The star is where a group is joined. Arachidoyl = CCCCCCCCCCCCCCCCCCCC(=O)*; Orn = NCCC[C@H](N)C(=O)O

Columns and labels:
[1] = system: U87 MG-luc2 human glioma cells, stably expressing luc2; test: Luciferase gene downregulation by CPP/siRNA (siLuc2) complexes; assay type: cell-based; settings: for Red (%) (reduction, based on remaining luminescence on U87 cells post-treatment): siRNA against luciferase
Description: (§1) For assessing the siRNA mediated RNAi, CHO-GFP or U87-luc2 cells (5×10^5 cells per well) were seeded on a 24-well plate a day prior to the experiment and grown in serum containing media. On experiment day, prior to adding pre-formed complexes ( 1/10th of the final volume per well), media was replaced with fresh serum containing medium.
(§2) For complex formation, peptide was mixed with luc2 siRNA (sense 5′-[…]-3′ (SEQ ID NO:7), antisense 5′-[…] 3′ (SEQ ID NO:8), Metabion, Germany) or with siRNA against GFP (5′-[…] (SEQ ID NO:9), 3′-[…] (SEQ ID NO:10)) in mQ water (pH 5.3-6.3) using peptide to siRNA molar ratios (MR is the ratio of peptide to siRNA) […] and incubated at RT for 1 h. For siLuc2, the final concentration in media was 25 nM and for siGFP 100 nM. Cells were co-incubated with complexes for 4 h (37° C., 5% CO2), thereafter fresh serum containing media was added and followed by further incubation (20 h for siLuc2 or 44 h for siGFP complexes). Luciferase gene downregulation was measured from cell lysates with Promega luciferase assay system (Promega, Sweden) in combination with GLOMAX 96 microplate luminometer equipped with GLOMAX 1.9.2 software (Promega). GFP was measured after treatment from cell lysates on black 96-well plates by measuring total fluorescence (Symergy MX, BioTek Instruments, USA equipped with Gen5 1.10 software). The results were normalized to the protein content of each sample (DC Protein Assay, BioRad, USA).
Luciferase activity was determined as described in previous paragraph.
For determination of pH dependency on the transfection efficiency, complexes were formed at MR30, incubated and diluted before addition to cells to obtain siRNA final concentration 10 nM in transfection media. HEPES buffer supplemented with 10% FBS was used as transfection media. Complexes were co-incubated with cells for 4 h and then media was replaced with cell growth media. After further 20 h incubation cells were lysed and analyzed as described previously.
The experiment was carried out in serum containing media (10% FBS). CPP/siRNA complexes were formed at different molar ratios with siRNA concentration kept constant (50 nM in transfection media). Luminescence from luciferin-luciferase reaction was measured at 24 hours post-treatment from cell lysate. Results were normalized to protein content and luminescence values from untreated cells (100%).

[2] = system: CHO stably expressing green fluorescent protein (GFP); test: GFP gene downregulation by CPP/siGFP complexes (lysate fluorescence, FACS, confocal); assay type: cell-based; settings: for downregulation of GFP (average, cell lysate fluorescence): siGFP 100 nM
Description: as §1, §2
For flow cytometry analysis (FACS) analysis CHO-GFP cells were seeded and treated as described previously. After incubation, cells were washed with 1× PBS and detached from plates with trypsin-EDTA (0.25%), and re-suspended in PBS supplemented with FBS (5%) and transferred to transparent U-bottom 96-well plates. FACS was carried out with BD LSR II flow cytometer (BD Biosciences, San Jose, CA, USA) equipped with a 488 nm argon laser. Population of viable cells was determined from scatter plot: forward scattered plot (FSC) vs. side scattered light (SSC) plot. A minimum of 10,000 events from the viable cell population per sample were analyzed using BD FACS Diva software. Results are shown as the population with GFP signal lower than that of 0.1% of untreated cells.
For confocal microscopy 2×10^5 cells per chamber were seeded on NUNC 8-chamber plates. After treatment with complexes (25 ul of pre-formed CPP/siRNA complexes added to cells in 225 ul serum containing media), incubated (48 h) and GFP florescence images of cells were captured using confocal microscope Zeiss LSM 710 and excitation at 488 nm (493-616 filter).

[3] = Fluorescent dye (PicoGreen) intercalation and heparin displacement assay of CPP/siRNA complexes; assay type: physicochemical; settings: for stability of complexes to heparin displacement (in words): complexes pre-formed at MR30
Description: Complexation of siRNA and CPPs was assessed by Quant-iT™ PicoGreen® (PG) (Thermo Fisher Scientific, USA) assay in mQ water. Complexes were prepared as described previously, following addition of diluted PG. For detection, complexes (⅕ of volume), water (3/5) and PG (1/5) working dilution was incubated for 5 minutes and fluorescence was measured by fluorimeter (λex=492 nm, λem=535 nm) (SynergyMx, BioTek). For heparin displacement, instead of water, heparin salt solution at different concentrations were used and complexes incubated at 37° C. for 30 min before addition of PG dilution. Complex formation was also confirmed by gel electrophoresis (details in section 2.11).

Proteinase K = biological target: T1, Proteinase K (Parengyodontium album, UniProt P06873); test: Stability of CPP/siRNA complexes to degradation by Proteinase K; assay type: physicochemical; settings: Proteinase K >14.4 U per well
T1 construct: purchased Thermo Scientific, USA
T1 sequence (P06873 106-384): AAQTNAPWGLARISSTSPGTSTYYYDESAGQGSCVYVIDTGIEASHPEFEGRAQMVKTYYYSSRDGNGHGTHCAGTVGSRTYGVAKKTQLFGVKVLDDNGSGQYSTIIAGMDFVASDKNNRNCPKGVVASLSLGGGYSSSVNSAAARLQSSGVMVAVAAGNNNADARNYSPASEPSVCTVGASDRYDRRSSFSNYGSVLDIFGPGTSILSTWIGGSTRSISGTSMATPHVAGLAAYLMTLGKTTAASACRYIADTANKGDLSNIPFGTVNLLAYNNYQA
Description: To assess protection of siRNA from enzymatic degradation, after addition of PG dilution and initial measurement to set a starting point, Proteinase K (Thermo Scientific, USA) was added (>14 U/ml, 20 ul of mixture per well containing dilution of 120 ul of enzyme in 1 ml), co-incubated with complexes and fluorescence was measured over a 10 h period.

murine red blood cells = test: Membrane activity assay on murine red blood cells: hemolysis; assay type: cell-based, mouse; settings: for hemolytic activity of free peptide (in words): up to 10 uM
Description: For evaluation of membrane activity of peptides, hemolysis assay was used. For this whole blood was collected from mouse (adult, BALB/c) saphenous vein into a heparinized collection tube. Blood was centrifuged (2300× g, 15 min) to separate cells (red blood cells-RBC) from the plasma. RBCs were washed according to following procedures.
RBCs were washed with 10 ml 0.9% NaCl saline and centrifuged (600× g, 15 min). Supernatant was discarded after each centrifugation. This was repeated at least 3 times. RBCs were re-suspended in 5 ml saline and distributed equally to tubes and centrifuged (600× g, 15 min). The cells were washed and re-suspended in 2× PBS with the required pH (pH 5.5-7.5). The hemoglobin content in stocks was measured after lysis of cells with equal volume of 0.1% Triton X100 supplemented with 5% glucose. The cell suspension was diluted accordingly for each pH value to obtain similar concentration range of hemoglobin in stocks. To each 100 ul of peptide solution 100 ul of 10% glucose was added, mixed, and equal volume (200 ul) of RBC in 2× PBS were added and gently mixed. Peptide solution with RBCs was incubated at 37° C. for 1 h with gentle mixing (max 300 rpm) after which samples were centrifuged to pellet intact cells from the solution. Hemoglobin from lysed cells was determined from each sample from the supernatant on transparent 96-well plates by measuring the absorbance at 540 nm.
Controls were incubated in similar manner as samples. As a non-hemolysis control mQ supplemented with glucose (0%) was used and for hemolytic control 0.1% TritonX-100 with glucose (100%) was used (cells are suspended in 2× PBS before addition). Final percent was calculated as follows: […]
For hemolytic concentration determination 2× PBS at pH 7.5 was used for incubation and 1× PBS at pH 7.5 was used for washing. Everything else is as described in previous paragraph.

CHO cells = test: pDNA (p-CMV-Luc2) transfection with CPP/pDNA complexes; assay type: cell-based; settings: serum containing medium, CR1 to CR4, 24 h
Description: For the pDNA transfection experiment, CPP/pDNA nanoparticles were prepared by mixing […] of plasmid (p-CMV-Luc2) with the peptide in MQ water. Charge ratios from 1 to 4 (CR, equivalent to the nitrogen-to-phosphate ratio) were used. 50,000 CHO cells were seeded 24 hr before the experiment into 24-well plates, treated with complexes for 4 h in serum-containing medium, incubated for additional 20 hr, lysed and luminescence was measured.

organs of BALB/c mice = test: Gene delivery in vivo (CPP/pDNA, i.v., organ luminescence); design: species or system mouse; settings: CR2 or CR4, 50 μg or 20 μg pDNA, 24 h
Description: For in vivo pDNA delivery studies BALB/c mice were used. Each animal received a single […] intravenous (i.v.) injection of the complexes at CR2 or CR4. Two doses of pDNA […] were used. After 24 hr, the mice were sacrificed using cervical dislocation, and whole organs were harvested and snap-frozen on dry ice. The organs were homogenized, and luminescence was measured.

## CCCCCCCCCCCCCCCCCCCC(=O)N[C@@H](Cc1c[nH]cn1)C(=O)N[C@@H](Cc1c[nH]cn1)C(=O)N[C@@H](Cc1c[nH]cn1)C(=O)N[C@@H](Cc1c[nH]cn1)C(=O)N[C@@H](Cc1c[nH]cn1)C(=O)N[C@@H](Cc1c[nH]cn1)C(=O)NCC(=O)NCCC[C@H](N)C(=O)N[C@H](C(=O)N[C@@H](CC(C)C)C(=O)N[C@@H](CC(C)C)C(=O)N[C@@H](CCCCN)C(=O)N[C@@H](C)C(=O)N[C@@H](CC(C)C)C(=O)N[C@@H](CCCCN)C(=O)N[C@@H](C)C(=O)N[C@@H](CC(C)C)C(=O)N[C@@H](C)C(=O)N[C@@H](CCCCN)C(=O)N[C@@H](C)C(=O)N[C@H](C(=O)N[C@@H](CC(C)C)C(N)=O)[C@@H](C)CC)[C@@H](C)CC [NF705] (I: H-[Orn]ILLKALKALAKAIL-NH2 / II: Arachidoyl-HHHHHHG; amide I:1-II:C)
[1]; CPP/siRNA complexes
  Red (%) (reduction, based on remaining luminescence on U87 cells post-treatment): 52%
[2]
  downregulation of GFP (average, cell lysate fluorescence): lower efficiency than H6-C20
[3]; MR30, no heparin
  accessibility of siRNA in complexes (dye intercalation): low accessibility of siRNA
[3]
  stability of complexes to heparin displacement (in words): significantly higher stability to heparin displacement than NF70 peptide and even NF72 peptide
Proteinase K
  stability of complexes to proteinase K (in words): formed the most stable complexes with siRNA resistant to proteinase K
Murine red blood cells
  hemolytic activity of free peptide (in words): significantly higher
Murine red blood cells; peptide 0.75 uM, buffer pH 5.5-7.5
  pH dependent hemolytic activity (in words): markedly hemolytic already at pH 7.5

## CCCCCCCCCCCCCCCCCC(=O)N[C@@H](C)C(=O)NCC(=O)N[C@@H](Cc1ccc(O)cc1)C(=O)N[C@@H](CC(C)C)C(=O)N[C@@H](CC(C)C)C(=O)NCC(=O)N[C@@H](CCCCNC(=O)[C@H](CCCCNC(=O)[C@H](CCCCNC(=O)CCC(=O)NCCN(C)CCNc1ccnc2cc(C(F)(F)F)ccc12)NC(=O)CCC(=O)NCCN(C)CCNc1ccnc2cc(C(F)(F)F)ccc12)NC(=O)[C@H](CCCCNC(=O)CCC(=O)NCCN(C)CCNc1ccnc2cc(C(F)(F)F)ccc12)NC(=O)CCC(=O)NCCN(C)CCNc1ccnc2cc(C(F)(F)F)ccc12)C(=O)N[C@H](C(=O)N[C@@H](CC(N)=O)C(=O)N[C@@H](CC(C)C)C(=O)N[C@@H](CCCCN)C(=O)N[C@@H](C)C(=O)N[C@@H](CC(C)C)C(=O)N[C@@H](C)C(=O)N[C@@H](C)C(=O)N[C@@H](CC(C)C)C(=O)N[C@@H](C)C(=O)N[C@@H](CCCCN)C(=O)N[C@@H](CCCCN)C(=O)N[C@H](C(=O)N[C@@H](CC(C)C)C(N)=O)[C@@H](C)CC)[C@@H](C)CC [PF6, reference compound]
[1]; CPP/siRNA complexes, comparison between CPPs
  luciferase downregulation efficiency (in words): most efficient peptides even at low MRs
[1]; CPP/siRNA complexes
  Red (%) (reduction, based on remaining luminescence on U87 cells post-treatment): 84%
[1]; HEPES buffer pH 6.0 vs 7.4, siRNA 10 nM
  downregulation of reporter gene on cells in buffer, pH dependence: pH-dependent
[1]; complexes formed at MR30, average, read-out: IC50 (siRNA concentration), luciferase downregulation
  IC50: 0.0104 µM
[2]; CHO-GFP, CPP/siGFP complexes
  cells with downregulated reporter gene (GFP signal below threshold), FACS: approximately 70%
[2]; live cells treated with CPP/siGFP complexes
  GFP signal in confocal images: detected GFP signal was the lowest
[2]
  downregulation of GFP (average, cell lysate fluorescence): highest
[3]
  stability of complexes to heparin displacement (in words): only about a half of that in NF55/siRNA complexes
Proteinase K
  stability of complexes to proteinase K (in words): significantly lower stability to longer exposure to enzyme
Murine red blood cells
  hemolytic activity of free peptide (in words): most hemolytic

## HYHHGO^eILLKALKALAKAIL [NF725, group H3; C18 saturated fatty acid on N-terminus; C-terminally amidated]
[1]; CPP/siRNA complexes
  Red (%) (reduction, based on remaining luminescence on U87 cells post-treatment): 60%
CHO cells
  pDNA delivery / gene expression in vitro (in words): promising vectors for pDNA transfection
Organs of BALB/c mice
  reporter gene expression in organs after i.v. CPP/pDNA (in words): high gene expression level in liver; also recorded: higher at CR4 than CR2
